# Measured values published in article PMC3585964, “Tissue Inhibitor of Metalloproteinases-3 Peptides Inhibit Angiogenesis and Choroidal Neovascularization in Mice” (PLoS ONE, 2013).
# What was measured:
# Assay type in all cases: cell-based, Porcine
# [1] = tested on: ERK1 (p44) and ERK2 (p42) in PAE/KDR cells; test: VEGF-stimulated ERK1/2 (MAP kinase) phosphorylation (western blot); conditions: 20 µM peptide
# Experimental: (§1) Porcine Aortic Endothelial cells expressing VEGFR-2 (PAEKDR) were cultured in Ham’s F-12/DMEM medium supplemented with 10% fetal bovine serum (FBS) (Hyclone), 50 units/ml penicillin and 50 µg/ml streptomycin as described previously. Recombinant human VEGF was a kind gift from Genentech, CA. Antibodies: Anti-Phosphotyrosine clone 4G10 (Upstate Biotechnology/Millipore, Billerica, MA), monoclonal anti-Flk-1 (A-3) (Santa Cruz Biotechnology, Santacruz, CA), MAPK and phospho-specific MAPK antibodies (Calbiochem-Novabiochem Corporation/EMD chemicals, Gibbstown, NJ).
# (§2) Immunoprecipitates of cell lysates with the indicated antibodies were subjected to SDS-PAGE and western blot analysis. Proteins were detected with either a HRP-conjugated anti-rabbit or anti-mouse IgG antibody (Amersham Pharmacia Biotech., Piscataway, NJ) followed by ECL. […]
# (§3) Figure 3 Effects of TIMP-3 peptides on VEGF signaling in endothelial cells. […] Cell lysates were separated by SDS-PAGE (10%) and analyzed by immunoprecipitation with an anti-KDR anti-body followed by immunoblotting with an anti-phosphotyrosine antibody, 4G10 (top panel). KDR protein was analyzed by immunoprecipitation and immunoblotting of cell lysates using anti-KDR antibody (bottom panel). (b) Densitometric quantitation of 210-kDa bands for phospho- or total mature form of KDR. […]
# [2] = tested on: PAE/KDR cells; test: VEGF-induced endothelial cell proliferation; conditions: 1 µM peptide, 5 days; for Effect on VEGF-induced endothelial cell proliferation (in words): VEGF 5 ng/ml, ** p<0.01 vs VEGF control in figure legend
# Experimental: as §1
# Cells were seeded at a density of 2000 cells/well in 24 well culture plates and cultured for 24 h in growth medium. After synchronization overnight in serum-free medium supplemented with 0.1% BSA, the cells were stimulated with or without VEGF […] in the presence or absence of the indicated concentrations of TIMP-3 peptides. After a 5-day incubation, cells were trypsinized and counted using a Coulter particle counter.
# Figure 6 Effects of TIMP-3 peptides on VEGF-mediated EC proliferation. […] Serum-starved cells were incubated with or without VEGF (5 ng/ml) in the presence or absence of the 1 µM of TIMP-3 peptides for 5 days.
# [3] = tested on: VEGFR-2 (KDR) in PAE/KDR cells; test: VEGF-induced VEGFR-2 phosphorylation (immunoprecipitation/western blot); conditions: 20 µM peptide, 50 ng/ml VEGF
# Experimental: as §1, §2, §3
sequence,measurement,setting,value
KIKSCYYLPCFVTS [T3-loop 5],Inhibition of VEGF-stimulated MAP kinase activation,[1],"neither loop 5 nor N-peptide, even at higher concentrations (20 µM) inhibited VEGF-stimulated MAP kinase activation"
same,Possible induction of endothelial cell proliferation,[2],may in fact induce proliferation of endothelial cells
same,Effect on VEGF-induced endothelial cell proliferation (in words),[2],neither T3-loop 5 nor T3-N peptide showed inhibitory properties
same,Inhibition of VEGF-induced VEGFR-2 activation (phosphorylation),[3],failed to inhibit VEGF-induced receptor activation
RGFTKMPHVQYIHTEASESL [T3-N peptide],Inhibition of VEGF-stimulated MAP kinase activation,[1],"neither loop 5 nor N-peptide, even at higher concentrations (20 µM) inhibited VEGF-stimulated MAP kinase activation"
same,Possible induction of endothelial cell proliferation,[2],may in fact induce proliferation of endothelial cells
same,Effect on VEGF-induced endothelial cell proliferation (in words),[2],neither T3-loop 5 nor T3-N peptide showed inhibitory properties
same,Inhibition of VEGF-induced VEGFR-2 activation (phosphorylation),[3],failed to inhibit VEGF-induced receptor activation
